This is an account of results in patent US20130096105A1, “ArylSulfonamide Based Matrix Metalloprotease Inhibitors” (NOVARTIS AG, priority 2008, published 2013).

Where only a bound is given, the exact number is not on record here.

The target in one assay is Collagenase-3 (MMP-13) (Homo sapiens, UniProt P45452). As to the kind of experiment: Collagenase-3 (MMP-13) inhibitory activity, fluorogenic peptide substrate cleavage. Type of assay: biochemical. The conditions noted are these: read-out: MMP13 IC50. The procedure, abridged:
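Recombinant pro-MMP-13 activated with 1 mM APMA; inhibitor preincubated 60 min, then 5 μM MCA-Lys-Pro-Leu-Gly-Leu-Dpa-Ala-Arg-NH2 added in Tris-Cl pH 7.5 buffer with Zn2+, Ca2+, Brij-35, 1.0% DMSO, 20-25 °C. Fluorescence (ex 325/em 405 nm) read after 60 min; IC50 versus uninhibited control.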

Another assay has as its target T1, Gelatinase (MMP-2) (Homo sapiens, UniProt P08253).
T1 sequence (P08253 110-660): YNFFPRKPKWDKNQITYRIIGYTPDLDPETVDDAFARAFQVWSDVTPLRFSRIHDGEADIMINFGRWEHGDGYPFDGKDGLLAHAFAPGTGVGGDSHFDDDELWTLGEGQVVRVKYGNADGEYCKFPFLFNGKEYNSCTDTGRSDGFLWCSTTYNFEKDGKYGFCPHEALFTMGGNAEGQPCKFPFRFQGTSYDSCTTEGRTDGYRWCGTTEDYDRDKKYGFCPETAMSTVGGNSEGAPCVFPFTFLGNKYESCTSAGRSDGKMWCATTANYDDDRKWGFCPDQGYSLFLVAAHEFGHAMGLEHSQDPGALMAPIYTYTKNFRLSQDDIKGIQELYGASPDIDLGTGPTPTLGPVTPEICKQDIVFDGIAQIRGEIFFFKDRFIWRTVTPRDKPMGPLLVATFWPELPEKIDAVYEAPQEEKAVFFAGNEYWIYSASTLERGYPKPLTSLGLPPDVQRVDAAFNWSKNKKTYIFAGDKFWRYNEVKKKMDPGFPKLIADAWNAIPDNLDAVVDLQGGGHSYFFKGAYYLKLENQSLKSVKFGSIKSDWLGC
The assay can be described thus: Gelatinase (MMP-2) inhibitory activity, fluorogenic peptide substrate cleavage. Type of assay: biochemical. The conditions noted are these: read-out: MMP02 IC50. Summed up:
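Fluorogenic assay with MCA-Lys-Pro-Leu-Gly-Leu-Dpa-Ala-Arg-NH2 at 5 μM in Tris-Cl pH 7.5 buffer with ZnCl2, CaCl2, Brij-35 and 1.0% DMSO, 20-25 °C. Enzyme preincubated with inhibitor 60 min; fluorescence (ex 325/em 405 nm) read 60 min after substrate addition. IC50 relative to uninhibited control.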

Take `CC(C)(C)NC(=O)c1ccc(C(=O)c2ccc(Cl)c(S(N)(=O)=O)c2)cc1` [Example 52, N-tert-Butyl-4-(4-chloro-3-sulfamoyl-benzoyl)-benzamide]: the IC50 is 21.3 µM on Collagenase-3 (MMP-13) and 29.1 µM on Gelatinase (MMP-2).
As for `NS(=O)(=O)c1cc(C(=O)c2ccc(-c3ccc(Cl)cc3)cc2)ccc1Cl` [Example 66, 2-Chloro-5-(4′-chloro-biphenyl-4-carbonyl)-benzenesulfonamide], the IC50 turned out to be 0.63 µM at Collagenase-3 (MMP-13) and 0.72 µM on Gelatinase (MMP-2).
For the compound `CCOC(=O)N1CCc2[nH]c3ccc(C(=O)c4ccc(Cl)c(S(N)(=O)=O)c4)cc3c2C1` [Example 104, 8-(4-Chloro-3-sulfamoyl-benzoyl)-1,3,4,5-tetrahydro-pyrido[4,3-b]indole-2-carboxylic acid ethyl ester], the concentration for half-maximal inhibition (IC50) was determined as 1.9 µM at Collagenase-3 (MMP-13) and 21.4 µM on Gelatinase (MMP-2).
The like results for `NS(=O)(=O)c1cc(C(=O)c2ccc(F)cc2)ccc1Cl` [Example 51, 2-Chloro-5-(4-fluoro-benzoyl)-benzenesulfonamide] were, in that order, 18.7 µM and 14.6 µM.
Turning to `CN1CCN(c2ccc(C(=O)c3ccc(Cl)c(S(N)(=O)=O)c3)cc2)CC1` [Example 87, 2-Chloro-5-[4-(4-methyl-piperazin-1-yl)-benzoyl]-benzenesulfonamide], the concentration for half-maximal inhibition (IC50) at Collagenase-3 (MMP-13) is 1.19 µM; on Gelatinase (MMP-2) it was 1.74 µM.
On to `Cc1cccc(C(=O)c2ccc(Cl)c(S(N)(=O)=O)c2)c1` [Example 24, 2-Chloro-5-(3-methyl-benzoyl)-benzenesulfonamide], for which the IC50 turned out to be 2.1 µM on Collagenase-3 (MMP-13) and 9.16 µM on Gelatinase (MMP-2).
Turning to `CN(C)c1ccc(C(=O)c2ccc(Cl)c(S(N)(=O)=O)c2)cc1` [Example 78, 2-Chloro-5-(4-dimethylamino-benzoyl)-benzenesulfonamide], the IC50 on Collagenase-3 (MMP-13) came out at 0.35 µM; on Gelatinase (MMP-2), 0.27 µM.
`COc1ccc(-c2c[nH]c3cc(C(=O)c4ccc(Cl)c(S(N)(=O)=O)c4)ccc23)cc1` [Example 119, 2-Chloro-5-[3-(4-methoxy-phenyl)-1H-indole-6-carbonyl]-benzenesulfonamide]: the concentration for half-maximal inhibition (IC50) was 6.04 µM at Collagenase-3 (MMP-13) and 24 µM on Gelatinase (MMP-2).
Take `NS(=O)(=O)c1cc(C(=O)c2ccc(OC(F)(F)F)cc2)ccc1Cl` [Example 25, 2-Chloro-5-(4-trifluoromethoxy-benzoyl)-benzenesulfonamide]: the IC50 at Collagenase-3 (MMP-13) was found to be 5.3 µM; at Gelatinase (MMP-2) it was 2.17 µM.
As for `Cc1cc(-c2c[nH]c3cc(C(=O)c4cccc(S(N)(=O)=O)c4)ccc23)ccn1` [Example 10, 3-[3-(2-Methyl-pyridin-4-yl)-1H-indole-6-carbonyl]-benzenesulfonamide], the IC50 is 0.03 µM at Collagenase-3 (MMP-13) and 3.4 µM on Gelatinase (MMP-2).
Take `N#Cc1ccc(C(=O)c2ccc(Cl)c(S(N)(=O)=O)c2)cc1` [Example 44, 2-Chloro-5-(4-cyano-benzoyl)-benzenesulfonamide]: the IC50 stood at 0.56 µM on Collagenase-3 (MMP-13) and 0.62 µM at Gelatinase (MMP-2).
Turning to `NS(=O)(=O)c1cc(C(=O)c2ccc3cc[nH]c3c2)ccc1F` [Example 144, 2-Fluoro-5-(1H-indole-6-carbonyl)-benzenesulfonamide], the half-maximal inhibitory concentration (IC50) at Collagenase-3 (MMP-13) was 0.3 µM; on Gelatinase (MMP-2), 0.39 µM.
With `CCS(=O)(=O)c1ccc(-c2c[nH]c3cc(C(=O)c4ccc(Cl)c(S(N)(=O)=O)c4)ccc23)cc1` [Example 125, 2-Chloro-5-[3-(4-ethanesulfonyl-phenyl)-1H-indole-6-carbonyl]-benzenesulfonamide], the values for the IC50 on Collagenase-3 (MMP-13) and at Gelatinase (MMP-2) were 1.01 µM and > 30 µM, respectively.
On the same counts, the results for `NS(=O)(=O)c1cc(C(=O)c2ccc(N3CCCCCC3)cc2)ccc1Cl` [Example 90, 5-(4-Azepan-1-yl-benzoyl)-2-chloro-benzenesulfonamide] are 10.8 µM and 13.8 µM.
`CC(=O)c1cccc(-c2c[nH]c3cc(C(=O)c4ccc(Cl)c(S(N)(=O)=O)c4)ccc23)c1` [Example 121, 5-[3-(3-Acetyl-phenyl)-1H-indole-6-carbonyl]-2-chloro-benzenesulfonamide]: the IC50 at Collagenase-3 (MMP-13) was determined as 0.59 µM; at Gelatinase (MMP-2), 3.9 µM.
The like results for `CC(=O)Nc1cccc(-c2ccc(C(=O)c3ccc(Cl)c(S(N)(=O)=O)c3)cc2)c1` [Example 70, N-[4′-(4-Chloro-3-sulfamoyl-benzoyl)-biphenyl-3-yl]-acetamide] were, in that order, 4.01 µM and 11.4 µM.
The like results for `COc1ccc(C(=O)c2ccc(SC)c(S(N)(=O)=O)c2)cc1` [Example 7, 5-(4-Methoxy-benzoyl)-2-methylsulfanyl-benzenesulfonamide] were, in that order, 3.72 µM and 2.36 µM.
For `NS(=O)(=O)c1cc(C(=O)c2c[nH]c3ccccc23)ccc1Cl` [Example 113, 2-Chloro-5-(1H-indole-3-carbonyl)-benzenesulfonamide], the figures for the half-maximal inhibitory concentration (IC50) on Collagenase-3 (MMP-13) and at Gelatinase (MMP-2) were 3.08 µM and 8.94 µM, respectively.
For the compound `CS(=O)(=O)c1cccc(-c2c[nH]c3cc(C(=O)c4ccc(Cl)c(S(N)(=O)=O)c4)ccc23)c1` [Example 123, 2-Chloro-5-[3-(3-methanesulfonyl-phenyl)-1H-indole-6-carbonyl]-benzenesulfonamide], the half-maximal inhibitory concentration (IC50) at Collagenase-3 (MMP-13) is 0.39 µM; at Gelatinase (MMP-2), 5.02 µM.
The like results for `NS(=O)(=O)c1cc(C(=O)c2ccc(-c3ccsc3)cc2)ccc1Cl` [Example 40, 2-Chloro-5-(4-thiophen-3-yl-benzoyl)-benzenesulfonamide] were, in that order, 7.06 µM and > 30 µM.
On to `NS(=O)(=O)c1cc(C(=O)c2ccc3c(-c4ccnc(C5CC5)c4)c[nH]c3c2)ccc1Cl` [Example 139, 2-Chloro-5-[3-(2-cyclopropyl-pyridin-4-yl)-1H-indole-6-carbonyl]-benzenesulfonamide], for which the IC50 came to 0.068 µM at Collagenase-3 (MMP-13) and 4.15 µM on Gelatinase (MMP-2).
On the same counts, the results for `CN(C)CCOc1cc(-c2c[nH]c3cc(C(=O)c4ccc(Cl)c(S(N)(=O)=O)c4)ccc23)ccn1` [Example 142, 2-Chloro-5-{3-[2-(2-dimethylamino-ethoxy)-pyridin-4-yl]-1H-indole-6-carbonyl}-benzenesulfonamide] are 0.017 µM and 0.2 µM.
Regarding `COc1ccc(C(=O)c2ccc(Cl)c(S(=O)(=O)NCCc3ccc(F)cc3)c2)cc1` [Example 13, 2-Chloro-N-[2-(4-fluoro-phenyl)-ethyl]-5(4-methoxy-benzoyl)-benzenesulfonamide], the values for the IC50 on Collagenase-3 (MMP-13) and at Gelatinase (MMP-2) were 6.9 µM and 8.8 µM, respectively.
As to `COc1ccc(C(=O)c2ccc([S+](C)[O-])c(S(N)(=O)=O)c2)cc1` (centres unmarked) [Example 8, 2-Methanesulfinyl-5-(4-methoxy-benzoyl)-benzenesulfonamide], the 50% inhibitory concentration (IC50) was determined as 10.7 µM on Collagenase-3 (MMP-13) and 4.48 µM at Gelatinase (MMP-2).
For `NS(=O)(=O)c1cc(C(=O)c2ccc3c(-c4ccc(C(=O)N5CCOCC5)cc4)c[nH]c3c2)ccc1Cl` [Example 132, 2-Chloro-5-{3-[4-(morpholine-4-carbonyl)-phenyl]-1H-indole-6-carbonyl}-benzenesulfonamide], the IC50 was determined as 0.73 µM at Collagenase-3 (MMP-13) and 16 µM at Gelatinase (MMP-2).
For `COCCCc1cc(-c2c[nH]c3cc(C(=O)c4ccc(Cl)c(S(N)(=O)=O)c4)ccc23)ccn1` [Example 140, 2-Chloro-5-{3-[2-(3-methoxy-propyl)-pyridin-4-yl]-1H-indole-6-carbonyl}-benzenesulfonamide], the IC50 on Collagenase-3 (MMP-13) came out at 0.007 µM; on Gelatinase (MMP-2) it was 0.36 µM.
Take `NS(=O)(=O)c1cc(C(=O)c2cc[nH]c2)ccc1Cl` [Example 95, 2-Chloro-5-(1H-pyrrole-3-carbonyl)-benzenesulfonamide]: the IC50 at Collagenase-3 (MMP-13) is 6.21 µM; on Gelatinase (MMP-2), 3.97 µM.
As for `CCc1ccc(-c2ccc(C(=O)c3ccc(Cl)c(S(N)(=O)=O)c3)cc2)cc1` [Example 63, 2-Chloro-5-(4′-ethyl-biphenyl-4-carbonyl)-benzenesulfonamide], the IC50 amounted to 0.38 µM on Collagenase-3 (MMP-13) and 2.05 µM at Gelatinase (MMP-2).
As for `COCCCc1cc(-c2c[nH]c3cc(C(=O)c4cccc(S(N)(=O)=O)c4)ccc23)ccn1` [Example 11, 3-{3-[2-(3-Methoxy-propyl)-pyridin-4-yl]-1H-indole-6-carbonyl}-benzenesulfonamide], the figures for the IC50 on Collagenase-3 (MMP-13) and at Gelatinase (MMP-2) were 0.075 µM and 3.95 µM, respectively.
Consider `NS(=O)(=O)c1cc(C(=O)c2ccc3c(-c4ccnc(OCCN5CCOCC5)c4)c[nH]c3c2)ccc1Cl` [Example 143, 2-Chloro-5-{3-[2-(2-morpholin-4-yl-ethoxy)-pyridin-4-yl]-1H-indole-6-carbonyl}-benzenesulfonamide], for which the IC50 on Collagenase-3 (MMP-13) came out at 0.15 µM; on Gelatinase (MMP-2) it was 2.85 µM.
With `NS(=O)(=O)c1cc(C(=O)c2ccc(-c3cccc([N+](=O)[O-])c3)cc2)ccc1Cl` [Example 68, 2-Chloro-5-(3′-nitro-biphenyl-4-carbonyl)-benzenesulfonamide], the concentration for half-maximal inhibition (IC50) on Collagenase-3 (MMP-13) came out at 3.15 µM; at Gelatinase (MMP-2), 3.44 µM.

The IC50 is the concentration at which inhibition is half-maximal.
